Measurements taken from ChEMBL document CHEMBL1153484, “Design, synthesis and evaluation of N-[(3S)-pyrrolidin-3-yl]benzamides as selective noradrenaline reuptake inhibitors: CNS penetration in a more polar template” (Bioorg Med Chem Lett, 2009).

Columns and labels:
[1] = target: Sodium-dependent dopamine transporter (Homo sapiens, UniProt Q01959); assay: Displacement of radioligand from human recombinant DAT expressed in HEK293 cells by scintillation proximity assay; format: cell-based
[2] = target: Sodium-dependent serotonin transporter (Homo sapiens, UniProt P31645); assay: Displacement of [3H]citalopram from human recombinant SERT expressed in HEK293 cells by scintillation proximity assay; format: cell-based
[3] = target: Sodium-dependent noradrenaline transporter (Homo sapiens, UniProt P23975); assay: Displacement of [3H]nisoxetine from human recombinant NET expressed in HEK293 cells by scintillation proximity assay; format: cell-based
[4] = Intrinsic clearance in human liver microsomes; format: ADME, Microsome
[5] = target: Voltage-gated inwardly rectifying potassium channel KCNH2 (Homo sapiens, UniProt Q12809); assay: Displacement of [3H]dofetilide from human ERG
Cytochrome P450 2D6 = Cytochrome P450 2D6 (Homo sapiens, UniProt P10635); assay: Inhibition of CYP2D6; format: ADME
Cytochrome P450 2D6, sequence (P10635 whole entry): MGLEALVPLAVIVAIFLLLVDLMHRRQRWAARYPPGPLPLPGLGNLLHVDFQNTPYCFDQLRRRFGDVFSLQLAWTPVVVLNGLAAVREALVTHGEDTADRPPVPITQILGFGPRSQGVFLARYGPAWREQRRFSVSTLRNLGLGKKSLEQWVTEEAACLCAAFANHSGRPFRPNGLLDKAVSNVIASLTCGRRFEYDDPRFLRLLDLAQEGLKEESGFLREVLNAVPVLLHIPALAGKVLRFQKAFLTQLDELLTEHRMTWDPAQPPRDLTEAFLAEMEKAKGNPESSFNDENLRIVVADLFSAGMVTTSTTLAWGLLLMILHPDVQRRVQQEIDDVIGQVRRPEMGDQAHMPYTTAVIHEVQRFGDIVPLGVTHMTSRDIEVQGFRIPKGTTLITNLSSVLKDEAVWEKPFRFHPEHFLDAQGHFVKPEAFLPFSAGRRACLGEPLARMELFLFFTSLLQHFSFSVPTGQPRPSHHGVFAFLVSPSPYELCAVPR

Voltage-gated inwardly rectifying potassium channel KCNH2, sequence (Q12809 whole entry): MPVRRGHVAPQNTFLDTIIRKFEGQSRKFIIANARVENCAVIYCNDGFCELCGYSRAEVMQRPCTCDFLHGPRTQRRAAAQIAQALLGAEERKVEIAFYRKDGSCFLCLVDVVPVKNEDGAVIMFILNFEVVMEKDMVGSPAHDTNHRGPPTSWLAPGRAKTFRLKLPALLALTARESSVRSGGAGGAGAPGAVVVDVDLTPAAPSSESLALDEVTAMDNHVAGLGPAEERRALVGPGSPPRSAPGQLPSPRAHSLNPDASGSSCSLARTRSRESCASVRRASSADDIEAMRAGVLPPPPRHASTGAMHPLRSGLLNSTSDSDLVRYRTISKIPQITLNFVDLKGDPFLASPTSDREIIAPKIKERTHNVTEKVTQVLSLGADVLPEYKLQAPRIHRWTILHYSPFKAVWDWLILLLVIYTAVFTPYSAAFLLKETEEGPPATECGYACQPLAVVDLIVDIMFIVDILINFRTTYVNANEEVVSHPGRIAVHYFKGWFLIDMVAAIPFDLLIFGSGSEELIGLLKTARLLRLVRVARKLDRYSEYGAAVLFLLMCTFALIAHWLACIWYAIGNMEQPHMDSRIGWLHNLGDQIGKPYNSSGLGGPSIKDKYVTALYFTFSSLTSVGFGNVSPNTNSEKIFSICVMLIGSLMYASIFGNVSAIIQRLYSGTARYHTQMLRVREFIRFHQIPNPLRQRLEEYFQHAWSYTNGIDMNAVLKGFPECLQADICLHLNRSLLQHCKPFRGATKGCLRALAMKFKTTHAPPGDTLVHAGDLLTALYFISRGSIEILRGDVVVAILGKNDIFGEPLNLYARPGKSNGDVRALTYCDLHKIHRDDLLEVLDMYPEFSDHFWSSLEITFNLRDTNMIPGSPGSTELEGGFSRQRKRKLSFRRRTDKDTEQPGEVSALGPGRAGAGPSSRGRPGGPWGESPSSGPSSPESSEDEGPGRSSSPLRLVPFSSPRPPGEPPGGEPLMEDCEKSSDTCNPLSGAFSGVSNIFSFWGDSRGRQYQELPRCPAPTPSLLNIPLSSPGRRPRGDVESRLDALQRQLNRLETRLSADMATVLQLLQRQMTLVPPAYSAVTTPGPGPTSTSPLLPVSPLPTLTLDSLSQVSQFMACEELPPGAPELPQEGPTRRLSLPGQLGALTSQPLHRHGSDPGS
Sodium-dependent dopamine transporter, sequence (Q01959 whole entry): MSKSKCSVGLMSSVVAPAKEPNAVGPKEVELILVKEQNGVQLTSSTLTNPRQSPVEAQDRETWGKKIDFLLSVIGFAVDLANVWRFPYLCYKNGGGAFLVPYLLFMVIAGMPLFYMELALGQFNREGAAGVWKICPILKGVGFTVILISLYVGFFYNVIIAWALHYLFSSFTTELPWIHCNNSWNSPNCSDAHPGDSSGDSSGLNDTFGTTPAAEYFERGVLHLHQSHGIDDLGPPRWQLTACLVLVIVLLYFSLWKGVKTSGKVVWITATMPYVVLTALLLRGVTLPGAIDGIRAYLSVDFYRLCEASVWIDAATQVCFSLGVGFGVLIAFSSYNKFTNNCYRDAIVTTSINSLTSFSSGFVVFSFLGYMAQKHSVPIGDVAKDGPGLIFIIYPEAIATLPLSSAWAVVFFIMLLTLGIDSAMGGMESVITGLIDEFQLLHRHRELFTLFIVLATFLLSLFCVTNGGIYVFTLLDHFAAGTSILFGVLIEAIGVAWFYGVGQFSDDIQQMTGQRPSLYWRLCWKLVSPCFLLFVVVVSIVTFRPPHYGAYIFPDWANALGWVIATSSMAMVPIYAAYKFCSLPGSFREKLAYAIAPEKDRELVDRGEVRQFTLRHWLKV
Sodium-dependent noradrenaline transporter, sequence (P23975 whole entry): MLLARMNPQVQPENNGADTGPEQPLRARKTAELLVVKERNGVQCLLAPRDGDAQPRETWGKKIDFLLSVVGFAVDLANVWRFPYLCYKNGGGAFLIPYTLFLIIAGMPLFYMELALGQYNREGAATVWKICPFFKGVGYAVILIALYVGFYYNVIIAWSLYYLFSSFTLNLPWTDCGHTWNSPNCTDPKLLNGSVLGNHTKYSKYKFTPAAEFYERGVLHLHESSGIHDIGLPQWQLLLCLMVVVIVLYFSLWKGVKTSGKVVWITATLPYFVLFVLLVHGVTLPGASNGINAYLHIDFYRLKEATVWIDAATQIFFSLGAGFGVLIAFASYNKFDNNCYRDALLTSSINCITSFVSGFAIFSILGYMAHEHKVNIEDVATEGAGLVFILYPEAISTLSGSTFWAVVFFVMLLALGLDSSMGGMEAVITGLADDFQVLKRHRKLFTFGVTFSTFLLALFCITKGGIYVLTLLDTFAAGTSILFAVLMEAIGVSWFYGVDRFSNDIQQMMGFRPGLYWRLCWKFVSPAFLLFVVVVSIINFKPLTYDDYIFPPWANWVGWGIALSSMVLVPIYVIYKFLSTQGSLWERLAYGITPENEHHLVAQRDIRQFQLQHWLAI
Sodium-dependent serotonin transporter, sequence (P31645 whole entry): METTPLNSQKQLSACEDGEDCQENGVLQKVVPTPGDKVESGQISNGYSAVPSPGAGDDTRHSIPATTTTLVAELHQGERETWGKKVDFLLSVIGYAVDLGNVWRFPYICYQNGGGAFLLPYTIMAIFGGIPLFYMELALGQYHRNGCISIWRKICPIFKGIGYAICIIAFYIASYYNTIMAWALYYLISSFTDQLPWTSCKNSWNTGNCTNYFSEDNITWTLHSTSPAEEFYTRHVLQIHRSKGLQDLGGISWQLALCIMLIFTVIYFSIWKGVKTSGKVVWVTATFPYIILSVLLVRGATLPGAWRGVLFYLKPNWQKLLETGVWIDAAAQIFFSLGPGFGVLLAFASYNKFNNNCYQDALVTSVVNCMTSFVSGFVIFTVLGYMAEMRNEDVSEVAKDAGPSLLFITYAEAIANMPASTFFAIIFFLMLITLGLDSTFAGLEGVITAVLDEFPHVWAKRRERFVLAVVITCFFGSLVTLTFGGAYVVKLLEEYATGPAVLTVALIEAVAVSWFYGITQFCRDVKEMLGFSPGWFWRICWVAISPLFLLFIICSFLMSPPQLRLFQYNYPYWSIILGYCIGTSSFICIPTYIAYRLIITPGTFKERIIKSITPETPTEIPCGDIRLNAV

SMILES | Ki [1] | Ki [2] | Ki [3] | microsomal CLint [4] | IC50 (Cytochrome P450 2D6) | IC50 [5]
O=C(c1ccccc1Oc1ccccc1)N(C1CCC1)[C@H]1CCNC1 | > 10000 nM | 222 nM | 13 nM | < 7 µL/min/mg | – | –
CSc1ccccc1C(=O)N(C1CCC1)[C@H]1CCNC1 | > 10000 nM | 62 nM | 16 nM | < 7 µL/min/mg | > 30000 nM | > 20000 nM
O=C(c1ccccc1C(F)(F)F)N(C1CCC1)[C@H]1CCNC1 | > 10000 nM | 210 nM | 60 nM | < 7 µL/min/mg | – | > 10000 nM
O=C(C1CCC1)N(Cc1ccccc1C(F)(F)F)[C@H]1CCNC1 | > 10000 nM | 187 nM | 148 nM | < 7 µL/min/mg | – | –
O=C(c1ccccc1Oc1ccccc1)N(CC1CCC1)[C@@H]1CCNC1 | 4100 nM | 587 nM | 38 nM | < 8 µL/min/mg | – | –
O=C(c1ccccc1Oc1ccccc1)N(CC1CCC1)[C@H]1CCNC1 | > 10000 nM | 151 nM | 7 nM | < 7 µL/min/mg | 65 nM | 760 nM
CSc1ccccc1C(=O)N(C1CCCCC1)[C@H]1CCNC1 | 2950 nM | 16 nM | – | – | – | 2270 nM
CN(C(=O)c1ccccc1Oc1ccccc1)[C@H]1CCNC1 | > 3160 nM | 661 nM | 61 nM | – | – | 9210 nM
O=C(c1ccccc1C(F)(F)F)N(c1ccccc1)[C@H]1CCNC1 | 3130 nM | 113 nM | 28 nM | < 7 µL/min/mg | > 3000 nM | > 20000 nM
CC(C)N(C(=O)c1ccccc1C(F)(F)F)[C@H]1CCNC1 | > 10000 nM | 457 nM | 172 nM | – | – | > 20000 nM
CCOC(=O)N(Cc1ccccc1-c1ccccc1)[C@H]1CCNC1 | – | – | – | < 7 µL/min/mg | – | –
CC(C)C(=O)N(Cc1ccccc1-c1ccccc1)[C@H]1CCNC1 | – | – | – | – | – | 3020 nM
CC(C)CN(C(=O)c1ccccc1Oc1ccccc1)[C@H]1CCNC1 | > 10000 nM | 160 nM | 8 nM | < 7 µL/min/mg | – | –
CCN(C(=O)c1ccccc1Oc1ccccc1)[C@H]1CCNC1 | 3570 nM | 1610 nM | 9 nM | < 7 µL/min/mg | > 30000 nM | 5030 nM
CSc1ccccc1C(=O)N(C1CCCC1)[C@H]1CCNC1 | 4770 nM | 36 nM | 9 nM | – | – | > 18700 nM
O=C(c1ccccc1Oc1ccccc1)N(c1ccccc1)[C@H]1CCNC1 | 4650 nM | 68 nM | – | < 7 µL/min/mg | – | –
CC(C)CN(C(=O)c1ccccc1-c1ccccc1)[C@H]1CCNC1 | > 10000 nM | 654 nM | 294 nM | – | – | 1440 nM
CNCc1cnc(C)cc1Oc1ccccc1Oc1ccccc1 | – | – | – | < 7 µL/min/mg | – | 11200 nM
CCCN(C(=O)c1ccccc1SC)[C@H]1CCNC1 | 3110 nM | 1090 nM | 37 nM | – | – | > 20000 nM
CSc1ccccc1C(=O)N(c1ccccc1)[C@H]1CCNC1 | 3440 nM | 64 nM | 19 nM | – | – | > 20000 nM

Second part, led by results:

Ki [1] | Ki [2] | Ki [3] | microsomal CLint [4] | IC50 (Cytochrome P450 2D6) | SMILES | IC50 [5]
1360 nM | 39 nM | 19 nM | – | – | O=C(c1ccccc1Cl)N(CC1CCC1)[C@H]1CCNC1 | –
> 10000 nM | 663 nM | 32 nM | – | – | CC(C)c1ccccc1C(=O)N(C1CCCC1)[C@H]1CCNC1 | –
3040 nM | 179 nM | 8 nM | < 7 µL/min/mg | – | CSc1ccccc1C(=O)N(CC1CCC1)[C@H]1CCNC1 | > 20000 nM
2340 nM | 118 nM | 72 nM | – | – | Cc1ccccc1C(=O)N(CC1CCC1)[C@H]1CCNC1 | > 20000 nM
2040 nM | 857 nM | 10 nM | < 9 µL/min/mg | 3170 nM | CC(C)c1ccccc1C(=O)N(CC1CCC1)[C@H]1CCNC1 | > 18200 nM
3470 nM | 330 nM | 18 nM | – | – | CC(C)c1ccccc1C(=O)N(CC1CCCC1)[C@H]1CCNC1 | 2350 nM
> 10000 nM | 581 nM | 30 nM | – | – | O=C(c1ccccc1C(F)(F)F)N(CC1CC1)[C@H]1CCNC1 | > 20000 nM
3960 nM | 1650 nM | 1120 nM | – | – | O=C(c1ccccc1C(F)(F)F)N(CC1CCC1)[C@@H]1CCNC1 | –
3470 nM | 1080 nM | 572 nM | – | – | CSc1ccccc1C(=O)N(CC1CCC1)[C@@H]1CCNC1 | –
3670 nM | 266 nM | 6 nM | 8 µL/min/mg | 480 nM | CCSc1ccccc1C(=O)N(CC1CCC1)[C@H]1CCNC1 | 7570 nM
> 10000 nM | 2870 nM | 31 nM | – | – | CC(C)c1ccccc1C(=O)N(CC1CC1)[C@H]1CCNC1 | > 17600 nM
> 10000 nM | 5210 nM | 92 nM | – | – | CCCN(C(=O)c1ccccc1C(C)C)[C@H]1CCNC1 | –
> 3160 nM | 1990 nM | 825 nM | – | – | CC(C)c1ccccc1C(=O)N(CC1CCC1)[C@@H]1CCNC1 | –
> 10000 nM | 776 nM | 43 nM | – | – | CC(C)c1ccccc1C(=O)N(C1CCC1)[C@H]1CCNC1 | –
2680 nM | 237 nM | 29 nM | – | – | CCc1ccccc1C(=O)N(CC1CCC1)[C@H]1CCNC1 | –
3720 nM | 802 nM | 18 nM | 60 µL/min/mg | – | O=C(c1ccccc1C1CCCC1)N(CC1CCC1)[C@H]1CCNC1 | –
2650 nM | 348 nM | 22 nM | < 7 µL/min/mg | – | CCOc1ccccc1C(=O)N(CC1CCC1)[C@H]1CCNC1 | > 16800 nM
2750 nM | 109 nM | 24 nM | < 7 µL/min/mg | – | O=C(c1ccccc1C(F)(F)F)N(CC1CCCC1)[C@H]1CCNC1 | > 13500 nM
